Assay results reported in PubChem BioAssay AID1963427 (Molecular Pharmacology Branch, DTP, NCI, 2024).

Tested on: 317291-083-R-J1-PDC complex spheroid growth
Assay: Anticancer human tumor 317291-083-R-J1-PDC patient-derived soft tissue sarcoma cell line growth inhibition [Asc]
Details: for IC50: curve of first compound; for viability, T/C: stronger effect = lower value; active = viability on the fitted dose curve at most 10% of control; inactive = the rest
In short: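 Tumor cells were grown as multicellular spheroids with stromal HUVEC and mesenchymal stem cells and treated singly or in combination. Concentrations fell in half-log steps from the clinical Cmax, or from 10 microM where none was known.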

[1] = second compound 0.0316 µM, first compound 0.0316 µM
[2] = second compound 0.0316 µM, first compound 0.1 µM
[3] = second compound 0.0316 µM, first compound 0.316 µM
[4] = second compound 0.0316 µM, first compound 1 µM
[5] = second compound 0.1 µM, first compound 0.0316 µM
[6] = second compound 0.1 µM, first compound 0.1 µM
[7] = second compound 0.1 µM, first compound 0.316 µM
[8] = second compound 0.1 µM, first compound 1 µM
[9] = second compound 0.316 µM, first compound 0.0316 µM
[10] = second compound 0.316 µM, first compound 0.1 µM
[11] = second compound 0.316 µM, first compound 0.316 µM
[12] = second compound 0.316 µM, first compound 1 µM
[13] = second compound 1 µM, first compound 0.0316 µM
[14] = second compound 1 µM, first compound 0.1 µM
[15] = second compound 1 µM, first compound 0.316 µM
[16] = second compound 1 µM, first compound 1 µM
[17] = second compound 3.16 µM, first compound 0.0316 µM
[18] = second compound 3.16 µM, first compound 0.1 µM
[19] = second compound 3.16 µM, first compound 0.316 µM
[20] = second compound 3.16 µM, first compound 1 µM
[21] = second compound 10 µM, first compound 0.0316 µM
[22] = second compound 10 µM, first compound 0.1 µM
[23] = second compound 10 µM, first compound 0.316 µM
[24] = second compound 10 µM, first compound 1 µM
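Also: compound exposure lasted seven days after spheroids formed for three days.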
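For viability, T/C in this document: 100% = DMSO vehicle control wells.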

C=C(F)C(=O)N1CCN(c2nc(OCC3CCCN3C)nc3c2CCN(c2cccc4cccc(Cl)c24)C3)CC1CC#N (stereo unspecified) + Cc1c(S(C)(=O)=O)c(-c2cc(F)cc(N3CCN(c4ccc(NS(=O)(=O)c5ccc(NC(CCN6CCC(C(=O)OCCCP(=O)(O)O)CC6)CSc6ccccc6)c(S(=O)(=O)C(F)(F)F)c5)cc4)CC3)c2)c(-c2ccc(Cl)cc2)n1C(C)C
1970 nM: IC50 (second compound 0.1 µM)
1920 nM: IC50 (second compound 0.0316 µM)
1590 nM: IC50 (second compound 10 µM)
1620 nM: IC50 (second compound 1 µM)
1720 nM: IC50 (second compound 0.316 µM)
1170 nM: IC50 (second compound 3.16 µM)
inactive: viability, T/C [1] 105% | viability, T/C [2] 105% | viability, T/C [3] 85.2% | viability, T/C [4] 83.2% | viability, T/C (second compound 0.0316 µM, first compound 3.16 µM) 25.8% | viability, T/C [5] 113% | viability, T/C [6] 97% | viability, T/C [7] 86.2% | viability, T/C [8] 96.7% | viability, T/C (second compound 0.1 µM, first compound 3.16 µM) 17.6% | viability, T/C [9] 80.8% | viability, T/C [10] 90% | viability, T/C [11] 77.5% | viability, T/C [12] 87.1% | viability, T/C (second compound 0.316 µM, first compound 3.16 µM) 11.7% | viability, T/C [13] 87.5% | viability, T/C [14] 72.9% | viability, T/C [15] 76.8% | viability, T/C [16] 76.3% | viability, T/C (second compound 1 µM, first compound 3.16 µM) 13.7% | viability, T/C [17] 100% | viability, T/C [18] 69.9% | viability, T/C [19] 74.5% | viability, T/C [20] 58.6% | viability, T/C [21] 96.5% | viability, T/C [22] 99.1% | viability, T/C [23] 96.7% | viability, T/C [24] 77.9%
active: viability, T/C (second compound 0.0316 µM, first compound 10 µM) 0.54% | viability, T/C (second compound 0.1 µM, first compound 10 µM) 0.18% | viability, T/C (second compound 0.316 µM, first compound 10 µM) 0.14% | viability, T/C (second compound 1 µM, first compound 10 µM) 2.51% | viability, T/C (second compound 3.16 µM, first compound 3.16 µM) 7.37% | viability, T/C (second compound 3.16 µM, first compound 10 µM) 0.24% | viability, T/C (second compound 10 µM, first compound 3.16 µM) 8.59% | viability, T/C (second compound 10 µM, first compound 10 µM) 0.29%

CCN1C(C(=O)NC23CCC(C(=O)O)(CC2)CC3)C(c2cccc(Cl)c2F)C2(C(=O)Nc3cc(Cl)ccc32)C12CCCCC2 (stereo unspecified) + Cc1c(S(C)(=O)=O)c(-c2cc(F)cc(N3CCN(c4ccc(NS(=O)(=O)c5ccc(NC(CCN6CCC(C(=O)OCCCP(=O)(O)O)CC6)CSc6ccccc6)c(S(=O)(=O)C(F)(F)F)c5)cc4)CC3)c2)c(-c2ccc(Cl)cc2)n1C(C)C
inactive: viability, T/C (second compound 0.0316 µM, first compound 0.00949 µM) 108% | viability, T/C (second compound 0.0316 µM, first compound 0.03 µM) 122% | viability, T/C (second compound 0.0316 µM, first compound 0.0949 µM) 99.7% | viability, T/C (second compound 0.0316 µM, first compound 0.3 µM) 95.1% | viability, T/C (second compound 0.0316 µM, first compound 0.949 µM) 83.6% | viability, T/C (second compound 0.0316 µM, first compound 3 µM) 80.5% | viability, T/C (second compound 0.1 µM, first compound 0.00949 µM) 110% | viability, T/C (second compound 0.1 µM, first compound 0.03 µM) 90.2% | viability, T/C (second compound 0.1 µM, first compound 0.0949 µM) 89.5% | viability, T/C (second compound 0.1 µM, first compound 0.3 µM) 98.2% | viability, T/C (second compound 0.1 µM, first compound 0.949 µM) 108% | viability, T/C (second compound 0.1 µM, first compound 3 µM) 73.4% | viability, T/C (second compound 0.316 µM, first compound 0.00949 µM) 80.9% | viability, T/C (second compound 0.316 µM, first compound 0.03 µM) 90.8% | viability, T/C (second compound 0.316 µM, first compound 0.0949 µM) 90.3% | viability, T/C (second compound 0.316 µM, first compound 0.3 µM) 98.4% | viability, T/C (second compound 0.316 µM, first compound 0.949 µM) 91.5% | viability, T/C (second compound 0.316 µM, first compound 3 µM) 67.6% | viability, T/C (second compound 1 µM, first compound 0.00949 µM) 92.2% | viability, T/C (second compound 1 µM, first compound 0.03 µM) 90.3% | viability, T/C (second compound 1 µM, first compound 0.0949 µM) 68.9% | viability, T/C (second compound 1 µM, first compound 0.3 µM) 90.2% | viability, T/C (second compound 1 µM, first compound 0.949 µM) 89.7% | viability, T/C (second compound 1 µM, first compound 3 µM) 58% | viability, T/C (second compound 3.16 µM, first compound 0.00949 µM) 83.9% | viability, T/C (second compound 3.16 µM, first compound 0.03 µM) 84.1% | viability, T/C (second compound 3.16 µM, first compound 0.0949 µM) 68.6% | viability, T/C (second compound 3.16 µM, first compound 0.3 µM) 82.1% | viability, T/C (second compound 3.16 µM, first compound 0.949 µM) 85.9% | viability, T/C (second compound 3.16 µM, first compound 3 µM) 63.1% | viability, T/C (second compound 10 µM, first compound 0.00949 µM) 99.3% | viability, T/C (second compound 10 µM, first compound 0.03 µM) 102% | viability, T/C (second compound 10 µM, first compound 0.0949 µM) 90.8% | viability, T/C (second compound 10 µM, first compound 0.3 µM) 85.4% | viability, T/C (second compound 10 µM, first compound 0.949 µM) 94.8% | viability, T/C (second compound 10 µM, first compound 3 µM) 75.8%
> 3000 nM: IC50 (second compound 0.0316 µM) | IC50 (second compound 0.1 µM) | IC50 (second compound 0.316 µM) | IC50 (second compound 1 µM) | IC50 (second compound 3.16 µM) | IC50 (second compound 10 µM)

CNC(C)C(=O)NC1CN(S(=O)(=O)c2cccc(S(=O)(=O)N3CCC4CCC(C(=O)NC(c5ccccc5)c5ccccc5)N4C(=O)C(NC(=O)C(C)NC)C3)c2)CCC2CCC(C(=O)NC(c3ccccc3)c3ccccc3)N2C1=O (stereo unspecified) + Cc1c(S(C)(=O)=O)c(-c2cc(F)cc(N3CCN(c4ccc(NS(=O)(=O)c5ccc(NC(CCN6CCC(C(=O)OCCCP(=O)(O)O)CC6)CSc6ccccc6)c(S(=O)(=O)C(F)(F)F)c5)cc4)CC3)c2)c(-c2ccc(Cl)cc2)n1C(C)C
149 nM: IC50 (second compound 10 µM)
84.1 nM: IC50 (second compound 3.16 µM)
197 nM: IC50 (second compound 0.0316 µM)
176 nM: IC50 (second compound 0.316 µM)
138 nM: IC50 (second compound 0.1 µM)
61.4 nM: IC50 (second compound 1 µM)
inactive: viability, T/C (second compound 0.0316 µM, first compound 0.00316 µM) 121% | viability, T/C (second compound 0.0316 µM, first compound 0.01 µM) 65.5% | viability, T/C [1] 82.7% | viability, T/C [2] 55.4% | viability, T/C [3] 53.3% | viability, T/C [4] 32.9% | viability, T/C (second compound 0.1 µM, first compound 0.00316 µM) 88.3% | viability, T/C (second compound 0.1 µM, first compound 0.01 µM) 80.2% | viability, T/C [5] 60.4% | viability, T/C [6] 62.2% | viability, T/C [7] 35.1% | viability, T/C [8] 25.1% | viability, T/C (second compound 0.316 µM, first compound 0.00316 µM) 82.7% | viability, T/C (second compound 0.316 µM, first compound 0.01 µM) 67.4% | viability, T/C [9] 74.5% | viability, T/C [10] 60.5% | viability, T/C [11] 38.8% | viability, T/C [12] 23.8% | viability, T/C (second compound 1 µM, first compound 0.00316 µM) 70.7% | viability, T/C (second compound 1 µM, first compound 0.01 µM) 61.4% | viability, T/C [13] 55% | viability, T/C [14] 44.5% | viability, T/C [15] 41.3% | viability, T/C [16] 25.3% | viability, T/C (second compound 3.16 µM, first compound 0.00316 µM) 81% | viability, T/C (second compound 3.16 µM, first compound 0.01 µM) 53.1% | viability, T/C [17] 65.1% | viability, T/C [18] 50.9% | viability, T/C [19] 36.6% | viability, T/C [20] 22.1% | viability, T/C (second compound 10 µM, first compound 0.00316 µM) 77.5% | viability, T/C (second compound 10 µM, first compound 0.01 µM) 78.6% | viability, T/C [21] 67.1% | viability, T/C [22] 60% | viability, T/C [23] 34.9% | viability, T/C [24] 24.8%
